The text below walks through data of paper PMC4402683, “FIBT versus florbetaben and PiB: a preclinical comparison study with amyloid-PET in transgenic mice” (EJNMMI Research, 2015).

The test system of one data set is Aβ plaques. Nature of the data set: Small animal PET imaging in APP/PS1 tg and control mice (cortex + hippocampus-to-cerebellum PET ratio). The data set is classed as in vivo, mouse. Conditions: for SUVRtg/SUVRctl (tg/ctl): ratio of APP/PS1 tg to control mice SUVR; for Mean PET ratio (SUVR ± SD), cortex + hippocampus to cerebellum: 36 to 45 min. The method, then: Inhalation anesthesia with isoflurane was used and the eyes of the animals were protected with dexpanthenol eye ointment. Anesthesia was initiated 15 min ahead of experiments by placing the animal in a cage ventilated with oxygen (3.5 L/min) containing 3% isoflurane. Throughout the experiments, anesthesia was maintained by adjusting the isoflurane content (0.6% to 2%) to ensure a respiratory rate in the range 80 to 100/min. For i.v. injection, we inserted a tailored catheter into the lateral tail vein. Simultaneously with a slow bolus injection of 50 to 200 μL of tracer solution, we started the PET with scan duration of 45 min in 3D list mode on a Siemens Inveon system (axial field-of-view of 12.7 cm with a bore diameter of 12 cm, approximately 1.4 mm full-width-at-half-maximum spatial resolution; Siemens Healthcare, Erlangen, Germany). After tracer injection, we flushed the catheter with 50 to 100 μL of isotonic sodium chloride solution. During the scan, a heating pad prevented hypothermia. The radioactivity in the syringe was measured immediately before and after injection with a Capintec CRC® 15R (Capintec Inc, 6 Arrow Road Ramsey, NJ, USA) dose calibrator.
Based on our experience, variance of macroscopic brain anatomy is very low across mice with the same genetic background. Therefore, the creation of a MRI template was done by manual co-registration of all MR images based on prominent brain structures and the overall cortical contour and calculation of a mean image (Pmod 3.3, Pmod Technologies, Zurich, Switzerland). Structures outside of the brain were not considered in the manual co-registration process. Two major volume-of-interests (VOIs) were defined on the MRI template, one comprising the full cortex including hippocampus, the other comprising the full cerebellum. The same VOIs were then used for reading out co-registered PET data of a mean image of the final 10 min of the scan (minute 36 to 45). The VOIs were chosen based on previous findings in a voxel-based analysis of cerebral PiB uptake and its correlation with the underlying Aβ pathology in this mouse model. PET data was normalized and corrected for decay and dead time. The images were reconstructed by means of filtered back-projection (FBP), using a ramp filter with a cutoff at the Nyquist frequency into 45 frames (45 × 60 s). The image volume consisted of 128 × 128 × 159 voxels, each of a size of 0.78 × 0.78 × 0.80 mm. The PET images were manually co-registered with the MRI template. This was done by using the wash-in phase of the tracer to identify the brain contour for alignment with the MRI template. We scaled the PET images to percentage of injected dose per cubic centimeter. We then applied these VOIs to the co-registered PET images and exported the VOI values to Microsoft Excel 2010 in order to calculate cortex + hippocampus-to-cerebellum ratios (further referred to as PET ratios).
We tested the tg/ctl ratios for significance. First, we performed a one-way ANOVA between the three groups showing significance.

The nature of data set [1]: Lipophilicity (log Doct/PBS) by partition between 1-octanol and PBS. The data set is classed as physicochemical. As to conditions: 1-octanol/PBS pH 7.4, mean ± SD, N = 6. The method, then: Lipophilicity of the employed compounds was determined by a conventional partition method between 1-octanol and phosphate buffered saline (PBS), pH 7.4. The 1-octanol was saturated with PBS before use. Briefly, the no-carrier-added tracers, contained in 0.2 mL PBS, were added 0.2 mL of 1-octanol in a 1.5-mL polypropylene Eppendorf vial. The vial was sealed and vigorously shaken at room temperature for 5 min. The mixture was then centrifuged at 3,000 g for 10 min. A 100 μL aliquot from each of the two phases was drawn and their radioactivity content was determined in a NaI (Tl) well-type detector. The log Doct/PBS was calculated as follows: log Doct/PBS = log (radioactivity concentration in the 1-octanol phase/radioactivity concentration in the PBS phase). The reported values represent the mean of six independent measurements.

Another data set deals with Aβ deposits. The data set is described as follows: Ex vivo autoradiography, cortex/cerebellum uptake ratio. The data set is classed as in vivo, mouse. Conditions: n ≥ 3. The method, then:
In the present study, ex vivo autoradiography of [^18F]FIBT and [^18F]Florbetaben (Figure SI-1) were performed following a published procedure (Manook et al., 2012).
Figure SI-1. [^18F]FIBT and [^18F]Florbetaben autoradiography and cortex/ cerebellum uptake ratio (n≥ 3). Images of digital ex vivo autoradiography of a 12 µm thick axial section of age- and gender matched control (A and C) and APP/PS1 tg mouse brain (B and D). [^18F]FIBT (A and B), and [^18F]Florbetaben (C and D).

In data set [2] the target is Aβ aggregates. On the set-up: method as in PMID 24900362. Conditions: versus [^3H]PiB; cited from earlier work.
Data set [3] has as its target Aβ aggregates. Conditions: post mortem AD brain homogenates; cited from earlier work.
Data set [4] is described as follows: Ex vivo brain uptake studies in BALB/c mice. On the set-up: species or system mouse. Conditions: BALB/c mice without Aβ pathology, compared to [^18F]FIBT. As for the experimental part:
Ex vivo brain uptake studies were performed in male BALB/c mice (mean ± SD body weight: 23 ± 2 g). […] Groups of mice were killed at 5 and 30 min p.i. Radioactivity of weighted brain samples was measured in a γ-counter (Wallac 1480-011 Automatic Gamma Counter, PerkinElmer, Waltham, MA, USA). Data are expressed as percent of the injected dose per gram tissue (% I.D./g; mean ± SD, N = 5).

Where [5] appears, read: APP/PS1 tg mice (N = 4), 24-month-old.

In the case of `CNc1ccc(-c2nc3ccc(O)cc3s2)cc1` [[^11C]PiB, Pittsburgh compound B], the “SUVRtg/SUVRctl (tg/ctl)” value in the data set with Aβ plaques was 2.11 ± 0.24.
Turning to `CNc1ccc(-c2cn3c(n2)sc2cc(OCC[18F])ccc23)cc1` [[^18F]FIBT, 2-(p-methylaminophenyl)-7-(2-[^18F]fluoroethoxy)imidazo[2,1-b]benzothiazole], the “Log D oct/PBS” value in data set [1] worked out at 1.92 ± 0.06. For the same compound, the “Mean PET ratio (SUVR ± SD), cortex + hippocampus to cerebellum” value with Aβ plaques (setting [5]) stood at 1.68 ± 0.15; with Aβ plaques (C57BL6/J control mice (N = 3)) it was 0.95 ± 0.02. For the same compound, the “SUVRtg/SUVRctl (tg/ctl)” value in the data set on Aβ plaques was determined as 1.78 ± 0.16. Also, the Ctx/Clb ratio with Aβ deposits (APP/PS1 tg mouse brain) is 4.7 ± 0.3; in the data set on Aβ deposits (Ctl mouse brain) it was 1.1 ± 0.1. Further, the Ki (commonly a dissociation constant, usually derived from enzyme kinetics or from competition with a known ligand) on Aβ aggregates [2] was 2.1 ± 0.8 nM. Also, the equilibrium dissociation constant (Kd) (in general, the constant that tells how readily two partners part at equilibrium) at Aβ aggregates [3] is 0.7 ± 0.2 nM.
For the compound `CNc1ccc(/C=C/c2ccc(OCCOCCOCCF)cc2)cc1` [[^18F]florbetaben, florbetaben], in data set [1] (read-out: Log D oct/PBS), the logD at 5 min was 1.58 ± 0.13. Besides, the “Mean PET ratio (SUVR ± SD), cortex + hippocampus to cerebellum” value came out at 1.35 ± 0.06 in the data set with Aβ plaques (setting [5]) and 0.90 ± 0.01 with Aβ plaques (C57BL6/J control mice (N = 3)). For the same compound, in the data set with Aβ plaques, the “SUVRtg/SUVRctl (tg/ctl)” value came to 1.50 ± 0.06. Further, the Ctx/Clb ratio was 2.0 ± 0.3 in the data set on Aβ deposits (APP/PS1 tg mouse brain) and 1.3 ± 0.1 in the data set with Aβ deposits (Ctl mouse brain). In addition, the Initial brain uptake entry in data set [4] (5 min p.i.) is given as “lower initial uptake”. Further, in data set [4] (30 min p.i.), the Brain tracer retention entry is recorded as “higher tracer retention”. Also, the Kd at Aβ aggregates [3] was 6.7 ± 0.3 nM.
